# Legend:
# [1] = system: GPx-1; conditions: through interacting with selenocystein by forming a stable gold-Sec complex; cited from earlier work
# Description: Glutathione peroxidase-1 (GPx-1), a crucial antioxidant selenoenzyme in mammalian cells, is selected as a model drug target for tumor treatment. Suppression of intracellular GPx-1 activity induces the accumulation of hydrogen peroxide (reactive oxygen species, ROS), which would render tumor cells susceptible to ROS-induced apoptosis, [20].
# [2] = system: A549 cells; assay: Cell viability assay (CCK-8), A549; format: cell-based, human; conditions: A549, Au dose of 800 μM, 48 h, CCK-8; mean from three independent experiments
# Procedure: Briefly, cells were prior cultured on 96-well plates (at the density of 5 × 10^3 cells/well) for 24 h to allow cells attachment. The cells were treated with different doses of these free peptides (0, 1, 4, 16, 64, 256, 1024 µM) and peptide-Au clusters (0, 50, 100, 200, 400, 800 µM in Au dose) for 48 h, respectively. The cells were washed three times with PBS and then incubated with fresh growth medium containing 10% (v/v) CCK-8 reagent for 1 h at 37 °C for cell viability assay. The absorbance was measured at 450 nm by using a microplate reader (SpectraMAX M2, Sunnyvale, California). Cell viability of untreated cells was set as 100%, and that of treated cells were expressed as a relative percentage of untreated cells. All data were shown as mean percentages ± standard deviation from three independent experiments.
# [3] = system: GPx-1; assay: GPx-1 enzyme activity suppression in buffer; format: biochemical, bovine; conditions: buffer, Au dose of 400 μM, 10 min, GPx Activity Colorimetric Assay Kit, NADPH absorbance at 340 nm
# Description: The peptides (N2H-CCYGGPEEEEEVG-COOH (named P1), NH2-CCYGGPDDDEDVG-COOH (named P2) and NH2-CCYGGPEEVEEVG-COOH (named P3)) were chemically synthesized by a solid phase method (China Peptides Co. Ltd, Purity: 98%). Hydrogen tetrachloroaurate (III) (HAuCl4·4H2O) was purchased from Sinopharm Chemical Reagent Co. Ltd. Sodium hydroxide (NaOH), nitric acid (HNO3), hydrochloric acid (HCl) and hydrogen peroxide (H2O2) were purchased from Beijing Chemical Reagent Co., China. Human non-small cell lung carcinoma cells (A549 cells), Henrietta Lacks strain of cancer cells (Hela cells) and human colon adenocarcinoma cells (HCT-8 cells) were from Cancer Institute and Hospital, Chinese Academy of Medical Sciences. Fetal bovine serum (FBS) and trypsin-EDTA were obtained from Gibco, USA. Penicillin-streptomycin solution, cell culture medium DMEM and RPMI 1640 were purchased from Hyclone. Hoechst 33342, LysoTracker®Green DND-26, and CM-H2DCFDA were from Molecular Probes, USA. NucView™ 488 Caspase-3 Assay Kit was bought from Biotium, USA. 5,5′,6,6′-tetrachloro-1,1′,3,3′-tetraethylbenzimidazolocarbocyanine iodide (JC-1), cell lysis buffer for Western and IP, phenylmethanesulfonyl fluoride (PMSF) and BCA Protein Assay Kit were obtained from Beyotime Institute of Biotechnology, China. Protease inhibitor cocktail tablets were from Roche Diagnostics, GmbH, Mannheim, Germany. Cell counting kit-8 (CCK-8) reagents and Annexin V-FITC/Propidium (PI) Apoptosis Detection Kit were purchased from Dojindo Laboratories, Japan. GPx from bovine erythrocytes […] was provided by Sigma Aldrich, USA. GPx Activity Colorimetric Assay Kit was provided by Biovision, USA. Anti-GPx-1 antibody was offered by Abcam, UK. PARP antibody, caspase-3 antibody and β-actin antibody were offered by Cell Signaling Technology, USA. Amicon ultra centrifugal filter devices (Merck Millipore, MWCO: 10 kDa) were used for purification steps. Ultrapure Millipore (Mini-Q) water (18.2 MΩ) was used throughout the experiments. […]
# Pure GPx (lyophilized powder, ≥300 units/mg protein) were diluted by GPx sample buffer and incubated with peptide-Au clusters (Au25P1_9, Au25P2_9 and Au25P3_9) at a series of Au dose (0, 25, 100, 400 μM) for 10 min, respectively. […] The GPx activity of untreated samples was set as 100%, and that of peptide-Au clusters treated samples were expressed as a relative percentage of untreated ones.
# Figure S12. Peptide-Au clusters treated GPx-1 activity measured in buffer solution. The decrease in NADPH absorbance measured at 340 nm during the oxidation of NADPH to NADP is the indicative of GPx activity,^1, 2 which is in a dose dependent manner in tube experiments when treated with serial doses of peptide-Au clusters.
GPx-1 activity (relative to untreated = 100%) [3] [%],Compound,inhibition of GPx-1 activity [1],cell viability (relative to untreated = 100%) [2] [%]
,CC(=O)OC[C@H]1O[C@@H]([S-])[C@H](OC(C)=O)[C@@H](OC(C)=O)[C@@H]1OC(C)=O.CCP(CC)CC.[Au+] [auranofin],can inhibit GPx-1 activity,
29,"CCYGGPEEVEEVG [Au25P3_9, Au25 cluster coated by nine P3 peptides (…)]",,71
16,"CCYGGPDDDEDVG [Au25P2_9, Au25 cluster coated by nine P2 peptides (…)]",,53
,O=C(O)CC([S-])C(=O)O.[Au+] (stereo not drawn) [gold thiomalate],can inhibit GPx-1 activity,

# From publication PMC5428013, “Peptide-Au Clusters Induced Tumor Cells Apoptosis via Targeting Glutathione Peroxidase-1: The Molecular Dynamics Assisted Experimental Studies” (Scientific Reports, 2017)
